68 molecules from patent publication US20090143279A1 (priority 2007, published 2009) can be followed below.

Values joined by “and” are separate entries in the source; they are usually repeats but may differ in a detail not shown here. Identical values can stand only once. Counter-ions that a name gives are not always drawn. Like-named read-outs stand apart in the source and are kept apart here.

The subject of the test is cytochrome c. The test is classed as cell-based, mouse.
[1] abbreviates: composite Z-score vs mock-treated (DMSO) wells, concentration of each compound in μM.

Sequence of cytochrome c (P62897 whole entry): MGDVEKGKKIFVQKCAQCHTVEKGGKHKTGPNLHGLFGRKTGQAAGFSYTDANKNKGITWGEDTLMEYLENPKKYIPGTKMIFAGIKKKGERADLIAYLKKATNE

`COCC(=O)Nc1c(I)c(C(=O)NCC(O)CO)c(I)c(C(=O)N(C)CC(O)CO)c1I` (stereo not drawn) [iopromide] yielded a cyt c under setting [1] of 0.263.

Take `CC(O)Cn1cnc2c1c(=O)n(C)c(=O)n2C` (stereo not drawn) [proxyphylline]: the cyt c under setting [1] was −0.574.

For `O=C1C=C(O)C(=O)c2ccccc21` [lawsone], the cyt c was −0.273.

In the case of `O=C(NC(Cc1cc(=O)[nH]c2ccccc12)C(=O)O)c1ccc(Cl)cc1` (stereo not drawn) [rebamipide], the cyt c under setting [1] is listed as −0.372.

Molecule `CCCC1C(=O)N2C(N(C)C)=Nc3ccc(C)cc3N2C1=O` (stereo not drawn) [azapropazone] returned a cyt c of 0.418.

Regarding `CC(=O)Nc1nnc(S(N)(=O)=O)s1` [acetazolamide], the “cyt c (composite Z-score vs DMSO)” value is 0.698 and 0.613.

Take `CN1CCN2c3ccccc3Cc3ccccc3C2C1` (stereo not drawn) [mianserine]: the cyt c stood at 0.473.

Turning to `O=CC=Cc1ccc(O)cc1` [p-hydroxycinnamaldehyde], the cyt c under setting [1] is on record as −0.079.

As to `CC1(C)S[C@@H]2[C@H](NC(=O)C3(N)CCCCC3)C(=O)N2[C@H]1C(=O)O` [cyclacillin], the “cyt c (composite Z-score)” value is listed as −0.886.

On to `CC[N+](C)(C)Cc1ccccc1Br` [bretylium], for which the cyt c is given as 0.560 and the “cyt c (composite Z-score)” value was 0.295.

Take `CC1(C)O[C@@H]2C[C@H]3[C@@H]4C[C@H](F)C5=CC(=O)C=C[C@]5(C)[C@H]4[C@@H](O)C[C@]3(C)[C@]2(C(=O)CO)O1` [flunisolide]: the cyt c is 0.715 and the “cyt c (composite Z-score vs DMSO)” value is listed as −0.257.

`CO[C@H]1C[C@H](O[C@@H]2/C(C)=C/C[C@@H]3C[C@@H](C[C@]4(CC[C@H](C)[C@@H](C5CCCCC5)O4)O3)OC(=O)[C@@H]3C=C(C)/C(=N/O)[C@H]4OC/C(=C\C=C\[C@@H]2C)[C@]43O)O[C@@H](C)[C@@H]1O` [selamectin] showed a cyt c of 0.343.

The molecule `CC(=O)CC(c1ccccc1)c1c(O)c2ccccc2oc1=O` (stereo not drawn) [warfarin] gave a cyt c of 0.267.

With `C=CCOc1ccccc1OCC(O)CNC(C)C` (stereo not drawn) [oxprenolol], the cyt c was 0.047.

For the molecule `C#C[C@]1(O)CC[C@H]2[C@@H]3CCC4=CC(=O)CC[C@@H]4[C@H]3CC[C@@]21C` [norethindrone], the cyt c is 0.903 and the “cyt c (composite Z-score vs DMSO mock-treated wells)” value was determined as 0.056.

Molecule `COc1ccc2c3c1O[C@H]1[C@@H](O)CC=C4[C@@H](C2)N(C)CC[C@]431` [neopine] came in with a cyt c of 0.421.

`C[C@]12CC[C@H](O)CC1=CC[C@@H]1[C@@H]2CC[C@]2(C)C(=O)CC[C@@H]12` [dehydroepiandrosterone]: the cyt c under setting [1] was −0.634.

Molecule `CC1(C)CC[C@]2(C(=O)O)CC[C@]3(C)C(=CC[C@@H]4[C@@]5(C)CC[C@H](O)C(C)(C)[C@@H]5CC[C@]43C)[C@@H]2C1` [oleanolic acid] yielded a cyt c of 0.866.

In the case of `Cn1c(=O)c2c(ncn2C)n(C)c1=O` [caffeine], the “cyt c (composite Z-score vs DMSO)” value amounted to 0.292.

Consider `N[C@@H](CCC(=O)N[C@@H](CS)C(=O)NCC(=O)O)C(=O)O` [glutathione], for which the “cyt c (composite Z-score vs DMSO)” value is reported as −0.913.

Under setting [1], `CCOC(=O)C1=C(COCCN)NC(C)=C(C(=O)OC)C1c1ccccc1Cl` (stereo not drawn) [amlodipine] displayed a cyt c of 0.902.

`c1ccc(C2CN3CCSC3=N2)cc1` (stereo not drawn) [tetramisole] returned a cyt c of 0.209.

In the case of `CN1CCC(=C2c3ccccc3C=Cc3ccccc32)CC1` [cyproheptadine], the “cyt c (composite Z-score)” value is recorded as 0.064.

Consider `Cc1cn([C@H]2C[C@H](N=[N+]=[N-])[C@@H](CO)O2)c(=O)[nH]c1=O` [zidovudine], for which the cyt c is recorded as 0.611 and the “cyt c (composite Z-score vs DMSO mock-treated wells)” value was found to be 0.637.

`CC(=O)N[C@@H](CC(C)C)C(=O)O` [N-acetyl-L-leucine] displayed a cyt c of 0.648.

On to `CCN[C@H]1C[C@H](C)S(=O)(=O)c2sc(S(N)(=O)=O)cc21` [dorzolamide], for which the “cyt c (composite Z-score vs DMSO)” value is given as −0.076.

Take `CC1(C)O[C@@H]2[C@@H](CO[C@@]3(COS(N)(=O)=O)OC(C)(C)O[C@@H]23)O1` [topiramate]: under setting [1], the cyt c is given as −0.093.

Turning to `C=C(NC(=O)C(=C)NC(=O)c1csc(C2=N[C@@H]3c4csc(n4)[C@H]4NC(=O)c5csc(n5)[C@H]([C@](C)(O)[C@@H](C)O)NC(=O)[C@H]5CSC(=N5)/C(=C/C)NC(=O)[C@H]([C@@H](C)O)NC(=O)c5csc(n5)[C@]3(CC2)NC(=O)[C@H](C)NC(=O)C(=C)NC(=O)[C@H](C)NC(=O)[C@H]([C@@H](C)CC)N[C@@H]2C=Cc3c([C@H](C)O)cc(nc3[C@H]2O)C(=O)O[C@@H]4C)n1)C(N)=O` [thiostrepton], under setting [1], the cyt c is recorded as −1.134.

For `CO[C@H]1/C=C/O[C@@]2(C)Oc3c(C)c(O)c4c(O)c(c5c(nc6cc(C)ccn65)c4c3C2=O)NC(=O)/C(C)=C\C=C\[C@H](C)[C@H](O)[C@@H](C)[C@@H](O)[C@@H](C)[C@H](OC(C)=O)[C@@H]1C` [rifaximin], the cyt c under setting [1] is listed as −0.471.

Under setting [1], `COc1ccc(-c2cc(=O)c3c(OC)cc(O)cc3o2)cc1` [5,4′-dimethoxy-7-hydroxyflavone] had a cyt c of 0.173.

On to `Cc1nc2n(c(=O)c1CCN1CCC(c3noc4cc(F)ccc34)CC1)CCCC2` [risperidone], for which the “cyt c (composite Z-score vs DMSO)” value turned out to be 0.243.

For the molecule `NC1(C(=O)O)CC1` [aminocyclopropanecarboxylic acid], the “cyt c (composite Z-score vs DMSO)” value is given as 0.213.

As for `CC(C)NCC(O)COc1ccc(CC(N)=O)cc1` (stereo not drawn) [atenolol, reference compound], the “cyt c (composite Z-score vs DMSO)” value turned out to be 0.403.

As for `O=C(/C=C/c1ccc(O)cc1)c1ccc(O)cc1O` [isoliquiritigenin], the “cyt c (composite Z-score)” value is reported as 0.089.

On to `NS(=O)(=O)c1cc(C(=O)O)c(NCc2ccco2)cc1Cl` [furosemide], for which the “cyt c (composite Z-score vs DMSO mock-treated wells)” value was 0.234 and 0.342.

As for `COC(=O)C1=C(C)NC(C)=C(C(=O)OC(C)C)C1c1cccc2nonc12` (stereo not drawn) [isradipine], the cyt c under setting [1] is on record as 0.236.

As for `CN/C(=N/CCSCc1nc[nH]c1C)NC#N` [cimetidine], the cyt c was 0.794 and 0.587.

With `CNCC(O)c1ccc(OC(=O)C(C)(C)C)c(OC(=O)C(C)(C)C)c1` (stereo not drawn) [dipivefrin], the cyt c under setting [1] was −0.180.

Molecule `CN1[C@@H]2CC[C@H]1C[C@@H](OC(=O)C(CO)c1ccccc1)C2` (stereo partly drawn) [atropine sulfate] displayed a cyt c of 0.071.

For the molecule `CN(CCOc1ccc(CC2SC(=O)NC2=O)cc1)c1ccccn1` (stereo not drawn) [rosiglitazone], the cyt c is recorded as −0.121.

As to `CC(C)c1c(C(=O)Nc2ccccc2)c(-c2ccccc2)c(-c2ccc(F)cc2)n1CC[C@@H](O)C[C@@H](O)CC(=O)O` [atorvastatin, reference compound], the cyt c was −1.023.

In the case of `Cc1onc(-c2c(Cl)cccc2Cl)c1C(=O)N[C@@H]1C(=O)N2[C@@H]1SC(C)(C)[C@@H]2C(=O)O` [dicloxacillin sodium salt], the cyt c is reported as 0.836.

As to `COc1ccc([C@@H]2Sc3ccccc3N(CCN(C)C)C(=O)[C@@H]2OC(C)=O)cc1` [diltiazem], the cyt c was determined as 0.385 and the “cyt c (composite Z-score vs DMSO)” value was −0.201.

In turn, `COc1c2ccoc2c(OC)c2oc(=O)ccc12` [isopimpinellin] returned a cyt c of 0.230.

With `NCCc1c[nH]cn1` [histamine], the “cyt c (composite Z-score vs DMSO)” value was found to be 0.016.

As for `CCCSP(=O)(OCC)SCCC` [ethoprop], the cyt c amounted to 0.271.

`O=C1C=CC(=O)c2c(O)cccc21` [juglone]: the “cyt c (composite Z-score vs DMSO)” value is 0.266.

The molecule `Cc1n[nH]c(=O)[nH]c1=O` [6-azathymine] displayed a cyt c of 0.583.

Take `O=c1n(CCCN2CCN(c3cccc(Cl)c3)CC2)nc2ccccn12` [trazodone]: the “cyt c (composite Z-score vs DMSO)” value was 0.028 and 0.038.

With `O=C(O)c1cccnc1` [niacin], the “cyt c (composite Z-score vs DMSO)” value was 0.736 and 1.132.

As to `Oc1ccc(Cl)cc1` [parachlorophenol], the cyt c came to 0.036.

With catechin hydrate [reference compound], the cyt c is 1.085.

As to `Nc1nc2nc[nH]c2c(=S)[nH]1` [thioguanine], the “cyt c (composite Z-score vs DMSO)” value is −1.454.

As for `COc1ccc(-c2oc3c(CC=C(C)C)c(O[C@@H]4O[C@H](CO)[C@@H](O)[C@H](O)[C@H]4O)cc(O)c3c(=O)c2O[C@@H]2O[C@@H](C)[C@H](O)[C@@H](O)[C@H]2O)cc1` [icariin], the cyt c under setting [1] amounted to 0.073.

For the molecule `O=C(O)c1cc(O)ccc1O` [gentisic acid], the “cyt c (composite Z-score vs DMSO mock-treated wells)” value is given as 0.210.

With `Nc1cc(C(Cl)=C(Cl)Cl)c(S(N)(=O)=O)cc1S(N)(=O)=O` [clorsulon], the cyt c is listed as −0.186.

The molecule `CN1CCCC(n2nc(Cc3ccc(Cl)cc3)c3ccccc3c2=O)CC1` (stereo not drawn) [azelastine] returned a cyt c under setting [1] of 0.054.

With `C[N+](C)(C)CCO` [choline], the “cyt c (composite Z-score vs DMSO)” value was 0.713.

For the molecule `COc1ccccc1OCCNCC(O)COc1cccc2[nH]c3ccccc3c12` (stereo not drawn) [carvedilol], the cyt c under setting [1] was −4.745.

Consider `Cc1ccc(O)c([C@H](CCN(C(C)C)C(C)C)c2ccccc2)c1` [tolterodine], for which the cyt c is reported as −0.406.

Turning to `Cc1cccc(C)c1NC(=O)C1CCCCN1C` (stereo not drawn) [mepivacaine], the cyt c under setting [1] is on record as −0.084.

In the case of `O=C1C=C2C=C[C@@H]3C[C@@]2(O1)[C@H]1CCCCN31` [securinine], under setting [1], the cyt c is −0.481.

For the molecule `C[C@@H]1CC[C@H]2C(C)(C)[C@H]3C[C@@]12CC[C@@]3(C)O` [cedrol], the cyt c is −0.218.

Molecule `CC(C)(C)NC[C@H](O)COc1ccccc1C1CCCC1` [penbutolol] had a cyt c (normalized score (composite Z-score vs DMSO mock-treated wells), compound concentration (μM)) of 0.099.

Regarding `OC(Cn1cncn1)(Cn1cncn1)c1ccc(F)cc1F` [fluconazole], the “cyt c (composite Z-score vs DMSO)” value is recorded as 0.741.

For the molecule `C#C[C@]1(O)CC[C@H]2[C@@H]3CCC4=C(CCC(=O)C4)[C@H]3CC[C@@]21C` [norethynodrel], the cyt c is listed as −0.145 and the “cyt c (composite Z-score vs DMSO mock-treated wells)” value is recorded as −0.058.

Take `Oc1ccc2c3c1O[C@H]1[C@@H](O)CC[C@@]4(O)[C@@H](C2)N(CC2CCC2)CC[C@]314` [nalbuphine]: the cyt c turned out to be 0.276 and the “cyt c (composite Z-score vs DMSO)” value was −0.613.

With `CNCCC=C1c2ccccc2CCc2ccccc21` [nortriptyline], the “cyt c (composite Z-score vs DMSO)” value is 0.157 and 0.136.
